Molecular target: T1, human monoamine oxidase A (hMAO-A) (Homo sapiens, UniProt P21397)
T1 construct: gene MAOA
T1 sequence (P21397 1-527): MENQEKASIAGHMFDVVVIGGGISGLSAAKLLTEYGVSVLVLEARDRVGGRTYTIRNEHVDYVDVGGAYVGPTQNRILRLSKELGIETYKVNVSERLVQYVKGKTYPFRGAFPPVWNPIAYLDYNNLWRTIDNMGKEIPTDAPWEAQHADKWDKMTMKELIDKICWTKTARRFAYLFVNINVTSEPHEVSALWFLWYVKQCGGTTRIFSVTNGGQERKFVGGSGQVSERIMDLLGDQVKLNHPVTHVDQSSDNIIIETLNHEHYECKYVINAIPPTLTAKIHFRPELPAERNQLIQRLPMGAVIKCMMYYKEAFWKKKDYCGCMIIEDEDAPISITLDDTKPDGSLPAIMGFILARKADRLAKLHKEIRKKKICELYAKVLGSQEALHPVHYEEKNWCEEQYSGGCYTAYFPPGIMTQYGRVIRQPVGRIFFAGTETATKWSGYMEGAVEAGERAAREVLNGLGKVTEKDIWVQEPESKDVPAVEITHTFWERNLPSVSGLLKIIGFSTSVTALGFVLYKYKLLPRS
Assay: in vitro hMAO-A enzyme inhibition assay with p-tyramine as substrate, serial dilution
Assay type: biochemical

With `O=c1cc(C(F)(F)c2ccc(Br)cc2)n2cc(Br)sc2n1` [3g, 2-Bromo-5-[(4-bromophenyl)difluoromethyl]-7H-thiazolo[3,2-a]pyrimidin-7-one] the IC50 was 54.1 µM.

From paper PMC9100779, “Simple and Expedient Access to Novel Fluorinated Thiazolo- and Oxazolo[3,2-a]pyrimidin-7-one Derivatives and Their Functionalization via Palladium-Catalyzed Reactions” (Molecules, 2022)
